Test systems include HCC-2998 colon; TK-10 renal; HT29 colon; SK-MEL-2 melanoma; SK-MEL-28 melanoma; HCT-15 colon; HS 578T breast; MDA-MB-231 breast; OVCAR-4 ovarian; MOLT-4 leukemia.
Common to all, as to test: NCI anticancer screen, dose series, 48 h

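48-hour exposure; five concentrations; linearly interpolated endpoints. Abbreviation: GI50, concentration required for 50% inhibition of growth. TGI: concentration producing complete growth inhibition.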

With `NS(=O)(=O)c1ccc(-n2nc3c(c2-c2cccs2)Cc2ccccc2-3)cc1`, the GI50 in the assay on HCC-2998 colon was 12800 nM; in the assay with TK-10 renal, 12.2 µM; with HT29 colon it was 22900 nM; in the assay with SK-MEL-2 melanoma, 27.6 µM; in the assay on SK-MEL-28 melanoma, 25800 nM; with HCT-15 colon, 12000 nM. Moreover, the GI50 was 16100 nM with HS 578T breast, 17300 nM in the assay on MDA-MB-231 breast, 29.9 µM with OVCAR-4 ovarian and 1430 nM in the assay with MOLT-4 leukemia. Besides, the TGI in the assay with HCC-2998 colon is 25.4 µM; with TK-10 renal it was 38.7 µM; in the assay on HT29 colon, 59.4 µM; in the assay with SK-MEL-2 melanoma it was 69.6 µM; in the assay with SK-MEL-28 melanoma, 58.4 µM; in the assay on HCT-15 colon, 27.8 µM. Further, the TGI was 51 µM with HS 578T breast, 36.2 µM in the assay on MDA-MB-231 breast, greater than 100 µM in the assay with OVCAR-4 ovarian and 3.97 µM with MOLT-4 leukemia.
As to `CCN1CCN(c2ccc(NC(=O)Nc3nc4ccc(-c5ccccc5OC)cc4s3)cc2)CC1`, the GI50 was 1830 nM in the assay with HCC-2998 colon; 2.12 µM in the assay with TK-10 renal; 1310 nM in the assay with HT29 colon; 1.94 µM with SK-MEL-2 melanoma; 1760 nM with SK-MEL-28 melanoma; 1200 nM in the assay with HCT-15 colon. The GI50 is 1950 nM in the assay on HS 578T breast, 1720 nM in the assay on MDA-MB-231 breast, 1.68 µM with OVCAR-4 ovarian and 1800 nM in the assay with MOLT-4 leukemia. Further, the TGI was 3.39 µM in the assay with HCC-2998 colon; 3.6 µM in the assay with TK-10 renal; 2.7 µM with HT29 colon; 3.61 µM with SK-MEL-2 melanoma; 3.26 µM in the assay on SK-MEL-28 melanoma; 2.47 µM in the assay with HCT-15 colon. The TGI is 4.45 µM in the assay with HS 578T breast, 3.28 µM in the assay with MDA-MB-231 breast, 3.31 µM in the assay with OVCAR-4 ovarian and 3.67 µM with MOLT-4 leukemia.
Regarding `Oc1c(C(c2ccc(F)cc2)N2CCCCC2)ccc2cncnc12` (stereo not given), the GI50 was 2090 nM in the assay with HCC-2998 colon; 1.35 µM with TK-10 renal; 747 nM with HT29 colon; 0.527 µM with SK-MEL-2 melanoma; 710 nM in the assay with SK-MEL-28 melanoma; 2110 nM with HCT-15 colon. The GI50 was 432 nM in the assay with HS 578T breast, 1500 nM in the assay with MDA-MB-231 breast, 1.77 µM in the assay with OVCAR-4 ovarian and 1380 nM in the assay with MOLT-4 leukemia. In addition, the TGI with HCC-2998 colon is greater than 100 µM; with TK-10 renal it was greater than 100 µM; with HT29 colon, greater than 100 µM; in the assay with SK-MEL-2 melanoma, 5.86 µM; with SK-MEL-28 melanoma, greater than 100 µM; with HCT-15 colon, greater than 100 µM. The TGI in the assay with HS 578T breast, in the assay on MDA-MB-231 breast, in the assay on OVCAR-4 ovarian and with MOLT-4 leukemia was greater than 100 µM each time.
Consider `Cc1ccsc1C(NC(=O)c1ccccc1)c1cc(Cl)c2cccnc2c1O` (stereo not given), for which the GI50 was 775 nM in the assay on HCC-2998 colon; 0.579 µM in the assay with TK-10 renal; 548 nM in the assay with HT29 colon; 0.609 µM in the assay on SK-MEL-2 melanoma; 688 nM in the assay on SK-MEL-28 melanoma; 266 nM in the assay with HCT-15 colon. The GI50 in the assay with HS 578T breast is 379 nM; with MDA-MB-231 breast, 675 nM; with OVCAR-4 ovarian it was 0.479 µM; in the assay on MOLT-4 leukemia, 622 nM. Besides, the TGI in the assay on HCC-2998 colon is 16.2 µM; with TK-10 renal, 12.6 µM; with HT29 colon it was 20.7 µM; in the assay on SK-MEL-2 melanoma, 8.75 µM; in the assay with SK-MEL-28 melanoma, 18.9 µM; in the assay with HCT-15 colon, 16.6 µM. Also, the TGI in the assay with HS 578T breast came to 19.7 µM; with MDA-MB-231 breast, 18.7 µM; in the assay with OVCAR-4 ovarian it was 12.8 µM; in the assay with MOLT-4 leukemia, 34.6 µM.
As for `Cc1cc(I)cc(CN(C)CCCN2CCC(C)CC2)c1O`, the GI50 with HCC-2998 colon was 12400 nM; with TK-10 renal it was 14.7 µM; with HT29 colon it was 9020 nM; in the assay on SK-MEL-2 melanoma it was 17.4 µM; in the assay on SK-MEL-28 melanoma, 12100 nM; in the assay with HCT-15 colon, 12100 nM. Besides, the GI50 in the assay with HS 578T breast is 12100 nM; with MDA-MB-231 breast, 15100 nM; in the assay on OVCAR-4 ovarian, 13.1 µM; with MOLT-4 leukemia, 10000 nM. Besides, the TGI with HCC-2998 colon was 25.4 µM; with TK-10 renal, 29.2 µM; in the assay on HT29 colon, 21.3 µM; with SK-MEL-2 melanoma, 33.9 µM; with SK-MEL-28 melanoma it was 24.5 µM; in the assay with HCT-15 colon it was 26.7 µM. In addition, the TGI in the assay on HS 578T breast stood at 26.2 µM; in the assay on MDA-MB-231 breast, 32 µM; in the assay on OVCAR-4 ovarian, 31.7 µM; with MOLT-4 leukemia, 26.4 µM.
For `O=C(Nc1ccc(Br)c2ccccc12)c1ccc2ccccc2c1O`, the TGI in the assay on HCC-2998 colon was determined as 20.9 µM; with TK-10 renal, 30.3 µM; in the assay on HT29 colon, 15.3 µM; in the assay on SK-MEL-2 melanoma, 3 µM; in the assay on SK-MEL-28 melanoma, 48.1 µM; in the assay with HCT-15 colon, 7.1 µM. The TGI in the assay with HS 578T breast is 13.5 µM; in the assay on MDA-MB-231 breast, 16.8 µM; in the assay on OVCAR-4 ovarian it was greater than 100 µM; with MOLT-4 leukemia, greater than 100 µM.
For `COc1ccc(C(=O)/C=C/c2ccc(OCc3cccc(C(F)(F)F)c3)c(OC)c2)cc1OC`, the GI50 was 131000 nM in the assay on HCC-2998 colon; 397 µM in the assay on TK-10 renal; 52100 nM with HT29 colon; 187 µM with SK-MEL-2 melanoma; 262000 nM in the assay on SK-MEL-28 melanoma; 42000 nM in the assay on HCT-15 colon. In addition, the GI50 is 92400 nM in the assay on HS 578T breast, 51100 nM in the assay on MDA-MB-231 breast, 51.7 µM with OVCAR-4 ovarian and 27700 nM in the assay on MOLT-4 leukemia. Further, the TGI in the assay on HCC-2998 colon, in the assay with TK-10 renal, in the assay with HT29 colon, in the assay on SK-MEL-2 melanoma, in the assay on SK-MEL-28 melanoma and in the assay with HCT-15 colon was greater than 1000 µM in each case. Besides, the TGI with HS 578T breast, with MDA-MB-231 breast, in the assay on OVCAR-4 ovarian and with MOLT-4 leukemia was greater than 1000 µM throughout.
Take `COc1cccc(N2CC(O)=C(c3nc4ccccc4s3)C2=N)c1`: the GI50 with HCC-2998 colon is 230 nM; in the assay with TK-10 renal, 3.24 µM; in the assay with HT29 colon, 252 nM; in the assay with SK-MEL-2 melanoma, 7.14 µM; with SK-MEL-28 melanoma, 468 nM; with HCT-15 colon it was 90 nM. Further, the GI50 was 470 nM with HS 578T breast, 359 nM in the assay with MDA-MB-231 breast, 6.19 µM in the assay on OVCAR-4 ovarian and 166 nM in the assay on MOLT-4 leukemia. The TGI is 3.57 µM with HCC-2998 colon; 70.2 µM with TK-10 renal; greater than 39.3 µM with HT29 colon; greater than 100 µM in the assay with SK-MEL-2 melanoma; greater than 65 µM with SK-MEL-28 melanoma; 31.2 µM in the assay on HCT-15 colon. Further, the TGI with HS 578T breast is greater than 44.7 µM; in the assay on MDA-MB-231 breast it was 3.42 µM; in the assay with OVCAR-4 ovarian it was greater than 100 µM; in the assay on MOLT-4 leukemia it was greater than 100 µM.

The values are drawn from PubChem BioAssay (NCI).
